Experiment: Compound was evaluated for its ability to displace [3H](+)-pentazocine from sigma receptor in Guinea pig brain

Q: With `c1ccc([C@@]2(N3CCCCC3)CC[C@H]3C[C@H]32)cc1` as the compound, how does the Ki read?
A: The Ki was 1.13 µM.

Q: Which Ki does the source give for `c1ccc([C@]2(N3CCCCC3)CC[C@@H]3C[C@@H]32)cc1` here?
A: Its Ki is 7.28 µM.

Q: For `c1ccc([C@]2(N3CCCCC3)CC[C@H]3C[C@H]32)cc1`, which Ki is on record?
A: The Ki was 4.45 µM.

From BindingDB's records for doi:10.1021/jm00103a008 (National Institute of Diabetes and Digestive and Kidney …, 1993)
